{"source": "patent US20130189727A1", "about": "“Methods And Compositions For Cellular Imaging And Cancer Cell Detection Using Light Harvesting Conjugated Polymer-Biomolecular Conjugates” (NATIONAL UNIVERSITY OF SINGAPORE, priority 2010, published 2013)", "key": {"[1]": {"test": "Photostability in stained cells under continuous laser scanning (CLSM)", "format": "physicochemical", "settings": "excitation at 405 nm; MCF-7 cells", "method": "FIG. 2 is time-resolved confocal laser scanning microscopy (CLSM) fluorescence images of SKBR-3 breast cancer cells stained by affibody-attached P2 under laser scanning for (a) 0 min and (b) 15 minutes.\nFIG. 8 is confocal image of Hela cells under continuous excitation (λmax=488 nm) after 0 min (A) and 15 min (B) and the fluorescence/transmission overlapped images of the corresponding cells (C, D) taken after incubation with P3-phalloidin for 2 h at 0.5 μM.\nI0 is the initial fluorescence intensity of the sample […].\nTargeted fluorescence imaging of HER2-positive cancer cells using a P2-affibody conjugate was investigated. […]\nTo explore the potential of the CPE-g-PEG molecular brush in long-term clinical applications, the photostability and cytotoxicity of P4.1 were investigated. Changes in the CLSM images of P4.1-stained MCF-7 cells under continuous laser scanning were monitored to evaluate the photostability of P4.1 in cells. […] In comparison, most commercial dyes (such as fluorescein, rhodamine and Cy5) usually lose their fluorescence within 3 minutes under CLSM laser illumination. […]\nThe uptake of HCPEPEI-1/DNA and HCPEPEI-2/DNA polyplexes by COS-7 cells was monitored using confocal lasing scanning microscopy (CLSM). […] The dual modal HCPEPEIs fluorescent gene vectors could facilitate in tracking the delivery of genes due to the intrinsic fluorescence from the HCPE core. […]"}, "[2]": {"biological_target": "T1, lysozyme (Gallus gallus, UniProt P00698)", "T1 construct": "Hen egg white lysozyme, BSA, and human trypsin were ordered from Sigma-Aldrich; purchased Sigma-Aldrich; host or cells: hen egg white", "T1 sequence (P00698 19-147)": "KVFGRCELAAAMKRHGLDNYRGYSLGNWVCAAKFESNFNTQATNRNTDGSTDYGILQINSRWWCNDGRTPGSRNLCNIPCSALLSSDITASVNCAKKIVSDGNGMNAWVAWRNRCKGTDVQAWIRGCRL", "test": "Aptamer/lysozyme binding affinity (Kd)", "set-up": "species or system Hen", "method": "The LOD is estimated to be 0.36 μg/mL (2.4 pmol, based on 3σ from six independent measurements) using a standard fluorometer, which is more sensitive to aptamer-based electrochemical and fluorescent arrays and is similar to that obtained from a standard of ELISA. (See Vidal, M. L., et al., Agric. Food Chem. 2005, 53, 2379-2385, the entire teachings of which are incorporated herein by reference). However, the strategy of using Apt-NP as a platform for lysozyme detection reduces the bonding affinity (Kd) of the aptamer to its target. […] (See, for example, Cox, J. C.; Ellington, A. D., Bioorg. Med. Chem. 2001, 9, 2525-2531, the entire teachings are incorporated herein by reference). The large Kd on the NP surface is detrimental to assay sensitivity, could be the result of: (1) the steric hindrance induced by the folded aptamer upon binding to lysozyme which prevents the adjacent aptamers from folding into G-quartet structure; (2) the binding of lysozyme on the Apt-NP surface hampers subsequent aptamer/lysozyme binding due to electrostatic repulsion."}, "[3]": {"biological_target": "T1, lysozyme", "settings": "in solution; read-out: Kd measured in solution; cited from earlier work"}}, "note": "Read-outs that look alike come from different tables or passages of the source. {NH2} = amino group (5'-NH2) on the aptamer", "data": [{"compound": "O=C1OC2(c3ccc(O)cc3Oc3cc(O)ccc32)c2ccc(N=C=S)cc21", "note": "[FITC]", "values": [{"measurement": "decrease of fluorescence intensity after continuous excitation", "setting": "[1]", "result": "~56", "unit": "%"}]}, {"compound": "5′-NH2-ATCTACGAATTCATCAGGGCTAAAGAGTGCAGAGTTACTTAG (ATCTACGAATTCATCAGGGCTAAAGAGTGCAGAGTTACTTAG; 5' {NH2}, sugars by position and backbone not given here) [aptamer]", "values": [{"measurement": "apparent Kd", "setting": "[2]; aptamer on silica NP surface, lysozyme concentration at half-maximum signal", "result": "approximately 9 μg/mL"}, {"measurement": "Kd", "setting": "[2]; aptamer on silica NP surface, lysozyme concentration at half-maximum signal, read-out: apparent Kd", "result": "~625", "unit": "nM"}, {"measurement": "Kd on NP surface relative to Kd in solution", "setting": "[2]; larger", "result": 20, "unit": "fold"}, {"measurement": "Kd", "setting": "[3]", "result": 31, "unit": "nM"}]}, {"compound": "Poly[9,9-bis(2-(2-(2-methoxyethoxy)ethoxy)ethyl)fluorenevinylene-alt-9,9-bis(4-sulfonatobutyl)fluorenevinylene Sodium Salt] [PFVSO3]", "values": [{"measurement": "water solubility", "result": "approximately 20 mg/mL"}]}]}
